According to patent US8933030B2, “Treatments for gastrointestinal disorders” (Ironwwod Pharmaceuticals, Inc., priority 2010, dated 2015):
Where a SMILES comes first, the peptide text is derived from it. Bridges are numbered along the chain shown (N, C = ends).

What was measured:
[1] = after oral administration at therapeutic dose levels; cited from earlier work
[2] = molecular target: T1, guanylate cyclase-C (GC-C) (Homo sapiens, UniProt P25092); assay: Competitive radioligand ([125I]-pSTa) binding assay on T84 cells; set-up: cell-surface GC-C receptors on human colonic epithelial (T84) cells; endogenous in cells; host or cells: T84 human colonic epithelial cells; conditions: competition with 170 pM [125I]-pSTa for cell-surface GC-C receptors on T84 cells; read-out: inhibition constant (Ki), relative binding affinity
Method: The relative binding affinities of linaclotide and Cys1-IMD to the guanylate cyclase-C receptor (GC-C) were determined using a competitive-binding assay in which the peptides competed with a known GC-C agonist, porcine-derived heat-stable enterotoxin (pSTa), for binding sites on cell-surface GC-C receptors on human colonic epithelial (T84) cells. The pSTa was radiolabeled with ^125I to enable measurement of its receptor binding. The competitive-binding assay was performed by adding various concentrations of each peptide (0.1 to 3,000 nM) to 0.20 mL reaction mixtures containing Dulbecco's modified Eagle's medium (DMEM), 0.5% bovine serum albumin (BSA), 2.0×10^5 T84 cells, and 170 pM [^125I]-pSTa (200,000 cpm). The data were used to construct competitive radioligand-binding curves and determine the relative binding affinities of linaclotide and Cys1-IMD, as measured by their IC50 and Ki values.

[3] = molecular target: T1, guanylate cyclase-C (GC-C); assay: cGMP response in T84 cells (GC-C agonist activity); format: cell-based; set-up: tested for guanylate cyclase-C (GC-C) agonist activity in T84 cells; endogenous in cells; host or cells: T84 cells
Method: Linaclotide and Cys1-IMD were tested for guanylate cyclase-C (GC-C) agonist activity in T84 cells as follows. In each well of a 96-well plate, approximately 200,000 T84 cells/well was first incubated with 1 mM 3-isobutyl-1-methylxanthine (IBMX) in 0.18 mL of Dulbecco's modified Eagle's medium (DMEM) for 10 minutes at 37° C. Each peptide was diluted to final concentrations ranging from 0.1 to 10,000 nM, and 0.02 mL of each dilution was added in duplicate to a 96-well plate containing the T84 cells, for a final volume of 0.20 mL per well. The peptide reactions were incubated for 30 min at 37° C. Following the incubation, the supernatants were removed and discarded and the cells were lysed with cold 0.1 M hydrochloric acid (HCl) for 30 min on ice. The cell debris was removed by centrifugation and the concentration of guanosine 3′,5′-cyclic monophosphate (cyclic GMP) in each lysate was determined using liquid chromatography with tandem mass spectrometry. The data were used to construct dose-response curves and calculate half-maximal effective concentration (EC50) values for each test article.

T1 sequence (P25092 24-1073): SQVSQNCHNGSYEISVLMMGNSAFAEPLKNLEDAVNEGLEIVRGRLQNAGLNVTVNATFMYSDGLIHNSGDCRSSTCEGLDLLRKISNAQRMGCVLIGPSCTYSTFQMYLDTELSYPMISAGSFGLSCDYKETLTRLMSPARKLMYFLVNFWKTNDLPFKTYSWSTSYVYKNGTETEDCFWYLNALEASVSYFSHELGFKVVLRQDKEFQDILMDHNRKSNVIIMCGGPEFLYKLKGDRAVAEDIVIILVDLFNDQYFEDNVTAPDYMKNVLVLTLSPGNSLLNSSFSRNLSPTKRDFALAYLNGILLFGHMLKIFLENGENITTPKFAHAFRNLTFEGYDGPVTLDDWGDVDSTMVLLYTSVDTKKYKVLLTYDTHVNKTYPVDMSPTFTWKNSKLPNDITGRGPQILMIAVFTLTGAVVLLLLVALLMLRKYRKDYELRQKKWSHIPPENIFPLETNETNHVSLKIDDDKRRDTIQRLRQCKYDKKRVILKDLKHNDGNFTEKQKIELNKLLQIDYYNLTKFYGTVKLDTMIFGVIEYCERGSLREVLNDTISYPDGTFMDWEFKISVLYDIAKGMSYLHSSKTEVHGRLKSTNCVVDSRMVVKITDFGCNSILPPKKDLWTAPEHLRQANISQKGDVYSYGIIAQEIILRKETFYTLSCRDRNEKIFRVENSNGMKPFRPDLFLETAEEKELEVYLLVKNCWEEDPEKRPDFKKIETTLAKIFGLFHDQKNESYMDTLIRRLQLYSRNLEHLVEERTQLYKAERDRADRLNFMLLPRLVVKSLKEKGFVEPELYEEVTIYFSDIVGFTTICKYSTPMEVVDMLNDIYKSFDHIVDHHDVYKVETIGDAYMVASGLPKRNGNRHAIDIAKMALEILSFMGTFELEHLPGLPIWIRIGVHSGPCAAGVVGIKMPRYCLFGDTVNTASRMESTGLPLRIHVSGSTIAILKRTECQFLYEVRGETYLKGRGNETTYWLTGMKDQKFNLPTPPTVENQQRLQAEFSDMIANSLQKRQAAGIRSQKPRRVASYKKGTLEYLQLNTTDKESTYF

In the case of `C[C@@H]1NC(=O)[C@@H]2CCCN2C(=O)[C@H](CC(N)=O)NC(=O)[C@@H]2CSSC[C@H](N)C(=O)N[C@H]3CSSC[C@H](NC1=O)C(=O)N[C@@H]([C@@H](C)O)C(=O)NCC(=O)N[C@H](C(=O)N[C@@H](Cc1ccc(O)cc1)C(=O)O)CSSC[C@H](NC(=O)[C@H](Cc1ccc(O)cc1)NC(=O)[C@H](CCC(=O)O)NC3=O)C(=O)N2` [Linaclotide, Cys Cys Glu Tyr Cys Cys Asn Pro Ala Cys Thr Gly Cys Tyr] (H-CCEYCCNPACTGCY-OH; disulfide 1-6, 2-10, 5-13 (inferred); N-terminus and C-terminus assumed), the “levels of linaclotide seen systemically” value [1] is given as “no detectable levels”, the Ki [2] is given as 3.9 ± 1.6 nM and the EC50 [3] is given as 315 ± 105 nM.
